The term ED50 denotes the midpoint of the dose-response relation.

Here are results for five compounds from patent US4546107A, “1,4-Methano-2-benzazepine derivatives useful as cerebal dysfunction-improving drugs, anti-convulsant, anti-epileptic or anti-anxiety drugs” (priority 1982, dated 1985).

Experiment [1] deals with picrotoxin. The experiment is described as follows: Anti-picrotoxin action (picrotoxin-induced lethality in mice). It counts as in vivo, male dd mice. The conditions noted are these: for ED50: Mus musculus, po, 0.5 h, read-out: Anti-picrotoxin-lethal action, ED50. How it is done:
1. Anti-picrotoxin Action
Groups each of 7-14 male dd mice were used. A test compound was orally administered and 60 minutes thereafter, picrotoxin (5 mg/kg) was administered subcutaneously. The 50% anti-lethal dose (ED50) was calculated from the servival rate within 30 minutes.

The subject of experiment [2] is bicuculline. Put plainly: Anti-bicuculline action (bicuculline-induced tonic-extensile convulsions in mice). The experiment is classed as in vivo, male dd mice. The conditions noted are these: for ED50: Mus musculus, po, 5 min, read-out: Anti-bicuculline-convulsive action, ED50. On the procedure: 2. Anti-bicuculline Action
Groups each of 4-14 male dd mice were used. Each test compound was administered orally and 60 minutes thereafter, bicuculline (0.6 mg/kg) was administered intravenously. The dose (ED50) required for 50% suppression of the occurrence of tonic-extensile convulsions within 5 minutes against the control group was determined.

Bounds are passed on as bounds.

`O=C1NC2CC1Cc1ccc(Cl)cc12` (stereo not drawn) [A, 8-chloro-1,4-methano-2,3,4,5-tetrahydro-1H-2-benzazepin-3-one]: the figures for the ED50 in experiment [1] and in experiment [2] were 62 mg/kg and 95 mg/kg, respectively.

`CN1C(=O)C2Cc3ccc(Cl)cc3C1C2` (stereo not drawn) [B, 8-chloro-2-methyl-1,4-methano-2,3,4,5-tetrahydro-1H-2-benzazepin-3-one]: the ED50 in experiment [1] was 66 mg/kg; in experiment [2], 45 mg/kg.

As to `O=C1NC2CC1Cc1c(Cl)cc(Cl)cc12` (stereo not drawn) [C, 6,8-dichloro-1,4-methano-2,3,4,5-tetrahydro-1H-2-benzazepin-3-one], the 50% effective dose (ED50) in experiment [1] was 50 mg/kg; in experiment [2], 73 mg/kg.

On to `O=C1NC2CC1Cc1ccccc12` (stereo not drawn) [D, 1,4Methano-2,3,4,5-tetrahydro-1H--2benzazepin-3-one], for which the ED50 in experiment [1] is 1100 mg/kg; in experiment [2], more than 1000 mg/kg.

Turning to `COc1ccc2c(c1)C1CC(C2)C(=O)N1C` (stereo not drawn) [E, 8Methoxy-2-methyl-1,4-methano-2,3,4,5-tetrahydro-1H--2-benzazepin3-one], the ED50 in experiment [1] and in experiment [2] was more than 100 mg/kg in each case. Further, in experiment [1] (printed beside ED50 >100 mg/kg, p.o., mice, picrotoxin 5 mg/kg s.c.), the “Anti-picrotoxin-lethal action, percent in parentheses” value was 0%. The “Anti-bicuculline-convulsive action, percent in parentheses” value in experiment [2] (printed beside ED50 >100 mg/kg, p.o., mice, bicuculline 0.6 mg/kg i.v.) was 0%.
